#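 Interpolation was linear, between the two tested concentrations surrounding the appropriate level; five concentrations were tested over 48 hours in 96-well plates. At the GI50, growth is halved. The concentration for full growth arrest is given as TGI.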
# What was measured:
# Assay in all cases: NCI tumour cell line growth inhibition, 48 h
# [1] = test system: MDA-N
# [2] = test system: KM20L2 colon
# [3] = test system: HOP-18 NSCLC
# [4] = test system: DMS 273 small cell lung
# [5] = test system: SNB-78 CNS
# [6] = test system: RXF-631 renal
# [7] = test system: DMS 114 small cell lung
# [8] = test system: DLD-1 colon
# [9] = test system: XF 498 CNS
Compound,TGI [1],TGI [2],TGI [3],TGI [4],TGI [5],TGI [6],TGI [7],TGI [8],GI50 [1],TGI [9]
COc1ccc2c(c1)N(CCC1CCCCN1C)c1ccccc1S2 (stereo not given),25.7 µM,,,,,,,,,
Cc1cc2c(=O)cc(-c3ccc(C(=O)O)cc3)oc2c(C(=O)O)c1C,,> 100 µM,> 100 µM,> 100 µM,> 100 µM,> 100 µM,> 100 µM,> 100 µM,,
O=C1[C@H](c2ccccc2)C2c3ccccc3CCN12 (stereo not given in full),> 100 µM,,,,,,,,> 100 µM,
COC(=O)c1cc(O)ccc1NC(=O)c1ccc(O)cc1,,> 100 µM,> 100 µM,,> 100 µM,> 100 µM,> 100 µM,> 100 µM,,> 100 µM
NS(=O)(=O)c1ccc(NCc2cnc3ccccc3c2)cc1,> 100 µM,,,,,,,,,
O=C(Cc1nc2ccccc2s1)NC12CC3CC(CC(C3)C1)C2,,> 100 µM,,> 100 µM,> 100 µM,> 100 µM,,> 100 µM,,
Cc1ccccc1C(C#N)/C(=N/NC(=O)C(=O)NN)C(=O)Nc1cccc(C(F)(F)F)c1 (stereo not given),,> 100 µM,> 100 µM,> 100 µM,> 100 µM,> 100 µM,> 100 µM,> 100 µM,,
O=CN/C=C/c1ccccc1O,,> 100 µM,> 100 µM,> 100 µM,> 100 µM,,> 100 µM,> 100 µM,,
O=C(O)C#Cc1ccc([N+](=O)[O-])cc1,> 100 µM,,,,,,,,,
N#Cc1ccccc1/C=N/O,,> 100 µM,> 100 µM,> 55.6 µM,> 100 µM,,> 100 µM,> 100 µM,,> 100 µM
O=C1CSc2ccncc2N1,,> 100 µM,,> 100 µM,,,> 100 µM,> 100 µM,,> 100 µM
CNC(=S)N/N=C(/C)CCC/C(C)=N/NC(=S)NC,> 100 µM,,,,,,,,,
COc1cc([C@@H]2c3cc4c(cc3[C@@H](NC(=O)c3ccc([N+](=O)[O-])cc3)C3COC(=O)[C@@H]32)OCO4)cc(OC)c1O (stereo not given in full),,3.73 µM,> 100 µM,3.54 µM,75.5 µM,4.48 µM,2.35 µM,11.3 µM,,0.964 µM
Cn1c(C2CC(C)(C)c3c2c2ccccc2n3C)cc2ccccc21 (stereo not given),,> 304 µM,,> 304 µM,,,> 304 µM,> 304 µM,,> 304 µM
C=C1CCC2C(C)(CO)C(O)CCC2(C)C1CC(O)C1=CCOC1=O (stereo not given),,> 100 µM,> 100 µM,> 100 µM,,> 100 µM,> 100 µM,> 100 µM,,
COC1(C)Cc2c(c(C)c(O)c3c2C(=O)C=C(Cl)C3=O)O1 (stereo not given),> 100 µM,> 100 µM,,> 100 µM,,,76.6 µM,37.1 µM,,> 56.4 µM
O=C(/C=C/c1ccc2c(c1)OCO2)c1ccccc(=O)c1O,> 100 µM,,,,,,,,,
NC(CCCNCc1ccccc1O)C(=O)O (stereo not given),,> 100 µM,> 100 µM,> 100 µM,> 100 µM,,> 100 µM,> 100 µM,,
CC1=NN(c2ccccc2)C(=O)C1C(=O)C(=O)Nc1ccc(C)cc1C (stereo not given),,> 100 µM,> 100 µM,> 100 µM,> 100 µM,,> 100 µM,> 100 µM,,
O=c1nc2[nH]nc(-c3ccccc3)c2n[nH]1,,> 100 µM,,> 100 µM,> 100 µM,,> 100 µM,> 100 µM,,
O=C1CC23CC(=O)CC2(C1)c1ccccc1C3=O (stereo not given),,> 100 µM,> 100 µM,> 100 µM,> 100 µM,,> 100 µM,> 100 µM,,> 100 µM

# Source: PubChem BioAssay (NCI)
